Like-named read-outs stand apart in the source and are kept apart here. Each block holds one compound with its values, some of them ahead of it.
What was measured:
[1] = pKR+ determination of trityl alcohols by UV spectrophotometry in aqueous sulphuric acid solutions (Deno acidity function HR); assay type: physicochemical; settings: for pKR+ (477 nm): absorbance at 477 nm
Description: The physico-chemical properties of trityl cations have been thoroughly investigated. In 1955 Deno et al reported an empirical Acidity Function HR which allows the comparison of the stability of different trityl cations (N. C. Deno, J. J. Jaruzelski and A. Schriesheim, J. Am. Chem. Soc. 1955, 77, 3044). Using the acidity function and the methods described by Deno it is possible to evaluate the pKR+ parameter for trityl alcohol derivatives, which is a direct indication of the stability of the corresponding trityl cations.
Once the acidity function HR for a particular acidic solution is known, the pKR+ of a triarylcarbinol dissolved in that acidic solution can be calculated in a straightforward manner once the ratio [R^+]/[ROH] has been experimentally determined. Therefore, in order to determine pKR+ values in acidic solutions of known HR, the ratio [R^+]/[ROH] must be established or, what is the equivalent, the degree of ionization of the triarylcarbinol.
The [R^+]/[ROH] ratio can be determined by spectrophotometic means. In particular, for trityl derivatives, UV spectrophotometry is useful since trityl cations and their parent molecules show completely different absorption spectra in the UV region.
In general, the experimental procedure for determining pKR+ for a trityl alcohol is summarised as follows. A solution of the triaryl alcohol in question in acetic acid is prepared in a way that the final concentration of the solutions to be analysed by UV spectrometry are in the range of 10^−5 to 10^−7 molar. A constant amount of the acetic acid solution so prepared is then added to the solutions of sulphuric acid (for instance, using a micropipette) to carry out the UV spectrometry experiments. It is recommended that the values of E are measured at the λmax of the trityl cation.
Starting from the most concentrated sulphuric acid solutions, samples are prepared until it is observed that the absorbance of the samples starts to decay. In the range of concentrations prior to the decay of absorbance, the triaryl alcohol is dissolved in a sufficiently concentrated sulphuric to completely ionise it. Therefore, ε=εR. In the region of sulphuric acid concentrations in which the absorbance of the samples decays, a series of values for ε are collected.
Finally, a concentration of sulphuric acid is reached in which the absorbance at λmax is negligible (or the alcohol starts to precipitate). This indicates the end of the experiment and values for the [R^+]/[ROH] for a series of given HR are available.
The pKR+ can be determined using the equation
Using UV spectrometry, the λmax of the trityl cation was determined to be approximately 477 nm, as illustrated in FIG. 1. Absorbance values were recorded at this wavelength for different concentrations of sulphuric acid. […]

[2] = commercially available trityl protecting groups, values stated without experiment; cited from earlier work
[3] = Stability of the amino modifier reagent in acetonitrile; assay type: physicochemical; settings: room temperature
Method: The sulfoxy derivative survives conditions of polynucleotide synthesis and can either be cleaved with standard deblock solution, or left intact for an HPLC purification. […] UV quantification for release of the new protecting group is possible. Extinction coefficients (L/(mol×cm) shown in the Scheme above were measured in 2% TFA/DCM.

pKR+ (477 nm) ([1]; H2SO4 20%): −2.7
pKR+ (477 nm) ([1]; H2SO4 25%): −2.6
pKR+ (477 nm) ([1]; H2SO4 30%): −2.5
pKR+ ([1]; overall value for the trityl alcohol, UV at λmax of the trityl cation in sulphuric acid solutions): −2.6
Compound: COc1ccc(C(O)(c2ccc(C)cc2)c2ccc(C)cc2)cc1 [MDMeTrOH, 4-methoxy-4′,4″-dimethyltrityl alcohol]

Compound: monomethoxytrityl [MMTr]
pKR+ [2]: −3.40

Compound: COc1ccc(C(NCCCCCCOP(OCCC#N)N(C(C)C)C(C)C)(c2ccc(OC)cc2)c2ccc([S+](C)[O-])cc2)cc1 (stereo not shown) [DMS(O)MTr amino modifier, 6-(4,4′-dimethoxy-4″-(methylsulfinyl)tritylamino)hexylolxy-(2-cyanoethoxy) diisopropylaminophosphine]
stability of the reagent in solution [3]: stable in acetonitrile at room temperature for at least two weeks

Compound: 4,4′-dimethoxytrityl [DMTr]
pKR+ [2]: −1.24

Source: patent publication US20090182135A1, “Amino modifiers” (priority 2007, published 2009)
